# Source: paper PMC8518806 (2021)
# What was measured:
# [1] = tested on: M7 (RNA, aptamer) GGAGUACGUGGACUGCUUAUGCAGUAGGAAGGCUCC; assay: fluorescence turn-on titration; conditions: 125 mM KCl, 5 mM MgCl2; 20 mM Hepes pH 7.4; 100 nM BC1-DN
# [2] = tested on: M3 (RNA, aptamer) GGAGGUACGUGGACUGCUUAUGCAGUAGGAAGACCUCC; assay: fluorescence turn-on titration; conditions: 125 mM KCl, 5 mM MgCl2; 20 mM Hepes pH 7.4; 100 nM BC1-DN
# [3] = tested on: M4 (RNA, aptamer) GGAGGUACGUGGACUGCUUAUGCAGUAGGAAGCCCUCC; assay: fluorescence turn-on titration; conditions: 125 mM KCl, 5 mM MgCl2; 20 mM Hepes pH 7.4; 100 nM BC1-DN
# [4] = tested on: M6 (RNA, aptamer) GGAAAUACGUGGACUGCUUAUGCAGUAGGAAGGUUUCC; assay: fluorescence turn-on titration; conditions: 125 mM KCl, 5 mM MgCl2; 20 mM Hepes pH 7.4; 100 nM BC1-DN
# [5] = tested on: BeCA (RNA8-2) (RNA, aptamer) GGAGGUACGUGGACUGCUUAUGCAGUAGGAAGGCCUCC; assay: fluorescence turn-on titration; conditions: 125 mM KCl, 5 mM MgCl2; 20 mM Hepes pH 7.4; 100 nM BC1-DN
# [6] = tested on: M8 (RNA, aptamer) GGAGGUCGUGGACUGCUUAUGCAGUAGGAAGGCCUCC; assay: fluorescence turn-on titration; conditions: 125 mM KCl, 5 mM MgCl2; 20 mM Hepes pH 7.4; 100 nM BC1-DN
# [7] = tested on: M1 (RNA, aptamer) GGAGGCACGUGGACUGCUUAUGCAGUAGGAAGGCCUCC; assay: fluorescence turn-on titration; conditions: 125 mM KCl, 5 mM MgCl2; 20 mM Hepes pH 7.4; 100 nM BC1-DN
# [8] = tested on: M12 (RNA, aptamer) GGAGGUACGUGGACUGCUUCGGCAGUAGGAAGGCCUCC; assay: fluorescence turn-on titration; conditions: 125 mM KCl, 5 mM MgCl2; 20 mM Hepes pH 7.4; 100 nM BC1-DN
# [9] = tested on: M5 (RNA, aptamer) GGAGGUACGUGGACUGCUUAUGCAGUAGGAAGUCCUCC; assay: fluorescence turn-on titration; conditions: 125 mM KCl, 5 mM MgCl2; 20 mM Hepes pH 7.4; 100 nM BC1-DN
# [10] = tested on: M2 (RNA, aptamer) GGAGGGACGUGGACUGCUUAUGCAGUAGGAAGCCCUCC; assay: fluorescence turn-on titration; conditions: 125 mM KCl, 5 mM MgCl2; 20 mM Hepes pH 7.4; 100 nM BC1-DN
# [11] = tested on: RNA8-1 (RNA, aptamer) GGAGGCAGGGCUUAGUUGAGGUACGUGGACUGCUUAUGCAGUAGGAAGGCCUCACUUUUCCGCCGUUGGCACCAC; assay: fluorescence turn-on titration; conditions: 125 mM KCl, 5 mM MgCl2; 20 mM Hepes pH 7.4; 100 nM BC1-DN
# [12] = tested on: M9 (RNA, aptamer) GGAGGUAGUGGACUGCUUAUGCAGUAGGAAGGCCUCC; assay: fluorescence turn-on titration; conditions: 125 mM KCl, 5 mM MgCl2; 20 mM Hepes pH 7.4; 100 nM BC1-DN
# [13] = tested on: M10 (RNA, aptamer) GGAGGUACGUGGACUGCUUAUGCAGUAGGAAGCCUCC; assay: fluorescence turn-on titration; conditions: 125 mM KCl, 5 mM MgCl2; 20 mM Hepes pH 7.4; 100 nM BC1-DN
# [14] = tested on: RNA8-3 (RNA, aptamer) GGAGGUACGUGGAUAGGAAGGCCUCC; assay: fluorescence turn-on titration; conditions: 125 mM KCl, 5 mM MgCl2; 20 mM Hepes pH 7.4; 100 nM BC1-DN
# [15] = tested on: M11 (RNA, aptamer) GGAGGUACGUGGGCUGCUUAUGCAGCAGGAAGGCCUCC; assay: fluorescence turn-on titration; conditions: 125 mM KCl, 5 mM MgCl2; 20 mM Hepes pH 7.4; 100 nM BC1-DN
# [16] = tested on: BeCA (RNA8-2) (RNA, aptamer) GGAGGUACGUGGACUGCUUAUGCAGUAGGAAGGCCUCC; assay: fluorescence turn-on titration (NIR); conditions: 125 mM KCl, 5 mM MgCl2; 20 mM Hepes pH 7.4; 100 nM BC6
KD [1] [µM],KD [2] [µM],KD [3] [µM],KD [4] [µM],KD [5] [µM],KD [6] [µM],KD [7] [µM],KD [8] [µM],KD [9] [µM],KD [10] [µM],KD [11] [µM],KD [12] [µM],KD [13] [µM],KD [14] [µM],KD [15] [µM],KD [16] [µM],Compound
0.20 ± 0.03,0.62 ± 0.19,4.6 ± 1.4,0.35 ± 0.05,0.23,1.1 ± 0.44,1.1 ± 0.47,0.33 ± 0.12,1.3 ± 0.27,1.7 ± 0.48,0.9 ± 0.2,0.25 ± 0.06,0.77 ± 0.18,> 10,0.27 ± 0.08,,CN(C)c1ccc2cc(-c3cc(-c4ccc(C(=O)NCCOCCOCCNc5ccc([N+](=O)[O-])cc5[N+](=O)[O-])cc4C(=O)[O-])c4ccc(N(C)C)cc4[o+]3)c(=O)oc2c1
,,,,,,,,,,,,,,,0.22,CN(C)c1ccc2c(c1)OC(c1cc3ccc(N(C)C)cc3oc1=O)=CC21c2ccccc2C(=O)N1C#N (stereo not shown)
